Data from the NIST ThermoML archive (doi:10.1021/je9006585).
± gives the expanded uncertainty stated by the source.

Settings: Crystal; visual observation

Normal melting temperature: 142.2 ± 1.5 °C
SMILES: C[n+]1ccn(CCCn2cc[n+](C)c2)c1.F[P-](F)(F)(F)(F)F.F[P-](F)(F)(F)(F)F
